Results as given in PubChem BioAssay AID1996.
Converted amounts (≈) assume the structure as drawn.

Conditions: buffer; pH 7.4; 200.0 µM

solubility kinetic [µg/mL] | Compound
43.7 (≈ 126 µM) | COc1ccc(CCNC(=O)C2C3CCC(C3)C2C(=O)O)cc1OC (stereo not given)
2.3 (≈ 6.47 µM) | CCOc1ccc(Nc2ccc(N3C(=O)CCC3=O)cc2[N+](=O)[O-])cc1
2.2 (≈ 7.29 µM) | COC(=O)Nc1c(-c2ccccc2)nc2ccc(Cl)cn12
> 38.6 | O=C(CSCc1ccccc1)Nc1ccccc1
6.4 (≈ 28.3 µM) | O=C(Nc1ccc(-n2cccc2)cc1)C1CC1
23.9 (≈ 105 µM) | Cc1ccc(C)c(NC(=O)c2cnccn2)c1
1.9 (≈ 5.38 µM) | COc1ccc2cc(C(=O)N3CCN(c4ccccc4F)CC3)[nH]c2c1
> 38.9 | O=[N+]([O-])c1cccc2c(N3CCOCC3)ccnc12
> 36.5 | Cc1ccc(CCC(=O)NCc2ccccc2)o1
> 32.3 | O=C(O)c1ccc(-c2ccccc2)[nH]c1=O
33.7 (≈ 91.5 µM) | CCN(C(=O)COC(=O)c1ccc([N+](=O)[O-])o1)c1cccc2ccccc12
> 53.9 | COc1cccc(NC(=O)CN(C)CC(=O)NCc2ccc(F)cc2)c1
8.2 (≈ 21.2 µM) | O=C(NCC(=O)N1CC=C(c2ccccc2)CC1)c1ccc(OC(F)F)cc1
7.3 (≈ 23.5 µM) | CN(C)/C=C/C(=O)c1ccc2noc(-c3cccc(F)c3)c2c1
42.1 (≈ 135 µM) | Cc1ccccc1-c1noc(CCC(=O)NCc2ccco2)n1
22.3 (≈ 56.7 µM) | CN1CCN(C(=O)CCN2C(=O)/C(=C\c3ccc(F)cc3)SC2=S)CC1
> 42.5 | O=C(N/N=C/c1ccoc1)c1ccc(Cl)cc1Cl
0.4 (≈ 1.37 µM) | CC(C)(C)c1ccc(Cn2c(=O)cnc3ccccc32)cc1
1.7 (≈ 6.51 µM) | Cc1cc(N/C=C/C(=O)c2cccs2)ccc1F
4.3 (≈ 14.6 µM) | CCc1ccc(NC(=O)CCC(=O)c2ccc(C)cc2)cc1
1.3 (≈ 4.05 µM) | O=C(NCc1cccs1)C1CC(c2ccc(Cl)cc2)=NO1 (stereo not given)
15.6 (≈ 49.5 µM) | O=C(COC(=O)c1ccc(O)cc1)Nc1ccc2c(c1)OCO2

solubility kinetic [µg/mL] | Compound
> 54.8 | CCC(=O)NCCc1nc2cc(NC(=O)Nc3ccccc3)ccc2n1C
37.2 (≈ 117 µM) | O=C(/C=C/c1cccc(Br)c1)NCc1ccncc1
2.3 (≈ 8.34 µM) | O=C(NCCc1ccccc1)Oc1ccc(Cl)cc1
3.7 (≈ 11.7 µM) | COC(=O)c1ccc(NC(=S)NC(=O)c2cccnc2)cc1
34.6 (≈ 110 µM) | Cc1ccsc1C(=O)OCC(=O)N1CCc2ccccc2C1
> 37.8 | Cc1cccn(Cc2c(F)cccc2Cl)c1=O
2 (≈ 6.09 µM) | CSc1ncccc1C(=O)OCC(=O)N1CCc2ccccc21
0.7 (≈ 2.07 µM) | C=CCOc1ccc(/C=C2\SC(=Nc3cccnc3)NC2=O)cc1
4.4 (≈ 12.8 µM) | Cc1cc(N2CCCC2)ccc1NC(=O)COc1ccc(Cl)cc1
3.3 (≈ 9.34 µM) | Cc1cccc(N2CCN(C(=O)Cc3ccccc3[N+](=O)[O-])CC2)c1C
0.5 (≈ 1.61 µM) | O=C(CN1CCCc2ccccc21)Nc1ccccc1[N+](=O)[O-]
> 65 | O=C(Nc1ccc(Cl)c(Cl)c1)c1ccccc1NC(=O)C1CC=CCC1C(=O)O (stereo not given)
3.4 (≈ 9.83 µM) | O=C(OCC(=O)N1CCCc2ccccc21)c1cc(Cl)ccc1O
> 49.4 | Cn1ccnc1SCC(=O)Nc1ccc(SC(F)F)cc1
> 30.2 | CNC(=O)Nc1cccc2cccnc12
1.7 (≈ 4.65 µM) | O=[N+]([O-])c1cc(C(F)(F)F)ccc1NC1CCN(Cc2ccccc2)C1 (stereo not given)
2.4 (≈ 6.24 µM) | Cc1ccc(NC(=S)NC(=O)c2cncc(Br)c2)cc1Cl
3.9 (≈ 12.2 µM) | O=c1[nH]cccc1-c1nc2ccccc2n1Cc1ccccc1F
4.3 (≈ 13.7 µM) | N#C/C(=C/c1ccc(O)cc1)C(=O)NCc1ccc(Cl)cc1
1.1 (≈ 4.05 µM) | CC(C)(C)c1ccc(SCCc2ccccn2)cc1
> 41.1 | O=C(NCc1ccc(F)cc1)c1cccnc1C(=O)O
> 55 | O=C(NC(=S)N1CCN(C/C=C/c2ccccc2)CC1)c1cccnc1

solubility kinetic [µg/mL] | Compound
> 52.9 | CC(C)CC(C(=O)Nc1ccccc1)N1C(=O)C2C3C=CC(C3)C2C1=O (stereo not given)
6.1 (≈ 17.9 µM) | CCOc1ccccc1NC(=O)C(=O)CC(=O)c1ccc(OC)cc1
40.3 (≈ 126 µM) | Cc1ccc(S(=O)(=O)NCC(=O)OCc2ccccc2)cc1
9.5 (≈ 37.7 µM) | CN(C)c1ccc(/C=C/C(=O)c2cccnc2)cc1
2 (≈ 5.84 µM) | O=C1C(Nc2ccccc2)=CC(c2ccc(O)cc2)N1c1ccccc1 (stereo not given)
4.3 (≈ 13.6 µM) | O=C(COC(=O)c1ccc(O)cc1)Nc1ccccc1[N+](=O)[O-]
0.6 (≈ 1.92 µM) | CCn1c(=O)c([N+](=O)[O-])c(NCc2ccco2)c2ccccc21
37.9 (≈ 123 µM) | C=CCn1c(NCc2ccc(OC)cc2O)nc2ccccc21
> 43.4 | Cc1nn(CC(=O)NCc2cccnc2)c(C)c1[N+](=O)[O-]
51.7 (≈ 149 µM) | O=C(NC1CCN(CCc2c[nH]c3ccccc23)CC1)c1ccccc1
47.3 (≈ 135 µM) | CC(C)NC(=O)c1ccc(CN2CCC(Cc3ccccc3)CC2)cc1
> 49.7 | COc1cc(C(=O)NCCOc2ccccc2)cc(OC)c1OC
> 46 | COC(=O)Cc1ccc(NC(=S)N2CCCCC2C)cc1 (stereo not given)
> 41.4 | Cc1ccc(CONC(=O)c2ccccc2Cl)cc1
37 (≈ 148 µM) | Cc1nc2ccccc2n1CC(=O)c1ccccc1
6.1 (≈ 19.9 µM) | CCOc1ccc(C(=O)Nc2ccccc2OC(F)F)cc1
8 (≈ 27.8 µM) | O=C(NCc1ccco1)C1CC(c2ccc(F)cc2)=NO1 (stereo not given)
> 41.4 | O=C(COc1cccc(Cl)c1)NCc1ccccc1
53 (≈ 129 µM) | CC(=O)Nc1ccc(C(=O)CN2C(=O)NC3(CCCc4ccccc43)C2=O)c(F)c1 (stereo not given)
> 49.3 | CC1CCN(C(=O)c2ccccc2NC(=O)c2cccs2)CC1
23.8 (≈ 82 µM) | O=C(COC(=O)c1ccccc1)NC(=O)NC1CCCC1

Continued, molecule first:

Compound | solubility kinetic [µg/mL]
C=CCNC(=O)COc1ccccc1C#N | > 32.4
CC1C(=O)C(C)C(c2ccc(Cl)cc2)NC1c1ccc(Cl)cc1.Cl (stereo not given) | < 0.8
CCOC(=O)C(=O)Nc1cc(C)on1 | > 29.7
O=S1(=O)CCC(NC(=S)Nc2ccc3ccccc3c2)C1 (stereo not given) | 15.3 (≈ 47.7 µM)
CCC(C)c1ccc(NC(=O)COC(=O)C2CCCC2)cc1 (stereo not given) | 8.8 (≈ 29 µM)
CC1(C)Cc2c(c(N3CCCC3)nc3sc4c(N5CCNCC5)ncnc4c23)CO1 | 28.6 (≈ 67.4 µM)
CN1C(=O)NC(c2ccccc2Cl)C2=C1CC(C)(C)CC2=O (stereo not given) | > 47.8
CC(C)(C)C(=O)Nc1cc2c3c(c1)CCC(=O)N3CCC2 | 40 (≈ 140 µM)
CCCCCCC(=O)OCC(=O)c1ccc2c(c1)NC(=O)CO2 | 10.8 (≈ 33.8 µM)
CC(C)CCNC(=O)c1ccc2c(Cl)c3c(nc2c1)CCC3 | 0.5 (≈ 1.58 µM)
Cc1ccc2c(c1)c1c(n2CC(O)CN2CCC(C)CC2)CCCC1 (stereo not given) | 44.4 (≈ 130 µM)
CC(=O)Nc1ccccc1S(=O)(=O)CC1CC1(Cl)Cl (stereo not given) | > 48.3
Cn1c(Cl)c(/C=N/OC(=O)C(C)(C)C)c2ccccc21 | 0.7 (≈ 2.39 µM)
Cc1ccc(C(=O)NC2CCC(C)CC2)s1 (stereo not given) | 10.2 (≈ 43 µM)
COn1c(=O)c(-c2ccccc2)[n+]([O-])c2ccccc21 | > 40.2
O=C(O)c1c(-n2cccc2)sc2c1CCCC2 | > 37.1
Cc1ccc(S(=O)(=O)NCC[C@@]2(C)C3CCC2(C)C(=O)C3)cc1 (stereo not given in full) | > 50.3
CN1CCCCCC1=Nc1ccc([N+](=O)[O-])cc1.Cl | > 42.6
CCN1CCN(C(=O)/C=C/c2cccc(Cl)c2)CC1 | 40 (≈ 143 µM)
O=C(CCNS(=O)(=O)c1ccc(OC(F)(F)F)cc1)NC1CC1 | > 52.8
CC(C)C(NC(=O)c1ccc(Cl)cc1Cl)C(=O)N1CCC1 (stereo not given) | > 49.4
CCO/N=C/C1=C(O)C(C(=O)OC)C(C)(C)CC1=O (stereo not given) | > 40.4
CCCCOC(=O)N1CCOCCOCCOCCOCC1 | > 47.9
CC1=C(C(=O)OC2CCCCC2)C(c2ccccc2F)NC(=O)N1 (stereo not given) | 0.5 (≈ 1.5 µM)
CCNCC(=O)Nc1c(C)cccc1C | 25.2 (≈ 122 µM)
Cc1ccc(C(=O)NCC(=O)OCC(=O)c2c(N)n(C)c(=O)n(C)c2=O)cc1C | 7.3 (≈ 18.1 µM)
CSc1nc(-c2ccc(C)cc2)nc(N)c1C#N | < 0.1
CC1(C)CC2CC(C)(CN2C(=S)Nc2ccccc2F)C1 (stereo not given) | 44 (≈ 144 µM)

Compound | solubility kinetic [µg/mL]
CN(C)C=Nc1c(Br)cc(Br)c2nonc12 | 6 (≈ 17.2 µM)
O=C1C=C(N2CCCCCC2)C2(CCCCC2)O1 | 37.1 (≈ 149 µM)
Cc1cccc(OCCn2ccnc2)c1 | 20.9 (≈ 103 µM)
Cc1cc(C)cc(NC(=S)N(C)C)c1 | 30.7 (≈ 147 µM)
Nc1ncc2c(n1)-c1ccoc1CC2 | > 28.1
Cc1cccc(N2CCN(Cc3cnc(Cl)s3)CC2C)c1 (stereo not given) | 23.4 (≈ 72.7 µM)
CCOCCCNCC(=O)Nc1cc(S(=O)(=O)N2CCOCC2)ccc1N1CCOCC1 | > 70.6
C[C@H](NS(=O)(=O)c1ccc(Cl)cc1)C(=O)OCC(=O)N1CCOCC1 | 55.9 (≈ 143 µM)
O=C(NCCCN1CCCC1=O)Nc1ccccc1Cl | > 44.4
S=C(NCCc1ccccn1)NC1CC2CCC1C2 (stereo not given) | > 41.3
CCc1nnc(NC(=O)CN2C(=O)NC3(CC(C)CC(C)(C)C3)C2=O)s1 (stereo not given) | > 56.9
COc1ccc(-c2ccnc(-c3ccncc3)n2)cc1 | > 39.5
CN(C)c1nc(N(C)C)nc(N(C#N)CCCl)n1 | 19.2 (≈ 71.2 µM)
CCOC(=O)NC(=O)CSc1nc2ccc([N+](=O)[O-])cc2[nH]1 | 22 (≈ 67.8 µM)
CCOc1ccc(C(=O)NC2CCCCCCC2)cc1 | 2.5 (≈ 9.08 µM)
S=C(c1c[nH]c2ccccc12)N1CCCC1 | > 34.5
Nc1ncnc2c1ncn2[C@@H]1O[C@H](CO)[C@@H](O)[C@@H]1O | > 40.1
Clc1cccc(CN2CCN(c3ncccn3)CC2)c1Cl | 11.1 (≈ 34.3 µM)
O=C(COC(=O)c1ccc([N+](=O)[O-])o1)NC1CCCCC1 | > 44.4
CC12CC3(C)CC(C)(C1)CC(C(=O)NCc1cccnc1)(C2)C3 | > 46.9
O=[N+]([O-])c1cccc2c(S(=O)(=O)N3CCCCC3)cccc12 | 9.5 (≈ 29.7 µM)
Cc1cc2c(c(SCC(N)=O)n1)C(=O)OC2 | > 35.7
CCCCS(=O)(=O)N1CCCC(C(=O)NCCc2ccccc2)C1 (stereo not given) | 14.7 (≈ 41.7 µM)
CCOC(=O)Cc1csc(NC(=O)c2cc(C)on2)n1 | > 44.3
CN(CC(=O)N1CCOCC1)S(=O)(=O)c1ccc2ccccc2c1 | > 52.3
CN1CC(C(=O)c2ccc(F)cc2)C(c2ccc(F)cc2)C1 (stereo not given) | > 45.2
Cc1nn(CC(=O)N2CCC(C)CC2)c(=O)c2cccn12 | > 43.3
